Laboratory results taken from ChEMBL document CHEMBL2074117, “Influence of redox-active compounds and PXR-activators on human MRP1 and MRP2 gene expression” (Toxicology, 2002).

How the values were obtained:
[1] = biological target: T1, ATP-binding cassette sub-family C member 2 (Homo sapiens, UniProt Q92887); assay: TP_TRANSPORTER: Western blot, HepG2 cells; assay type: functional, cell-based
[2] = biological target: T1, ATP-binding cassette sub-family C member 2; assay: TP_TRANSPORTER: RT-PCR in HepG2 cells; assay type: functional, cell-based

T1 sequence (Q92887 whole entry): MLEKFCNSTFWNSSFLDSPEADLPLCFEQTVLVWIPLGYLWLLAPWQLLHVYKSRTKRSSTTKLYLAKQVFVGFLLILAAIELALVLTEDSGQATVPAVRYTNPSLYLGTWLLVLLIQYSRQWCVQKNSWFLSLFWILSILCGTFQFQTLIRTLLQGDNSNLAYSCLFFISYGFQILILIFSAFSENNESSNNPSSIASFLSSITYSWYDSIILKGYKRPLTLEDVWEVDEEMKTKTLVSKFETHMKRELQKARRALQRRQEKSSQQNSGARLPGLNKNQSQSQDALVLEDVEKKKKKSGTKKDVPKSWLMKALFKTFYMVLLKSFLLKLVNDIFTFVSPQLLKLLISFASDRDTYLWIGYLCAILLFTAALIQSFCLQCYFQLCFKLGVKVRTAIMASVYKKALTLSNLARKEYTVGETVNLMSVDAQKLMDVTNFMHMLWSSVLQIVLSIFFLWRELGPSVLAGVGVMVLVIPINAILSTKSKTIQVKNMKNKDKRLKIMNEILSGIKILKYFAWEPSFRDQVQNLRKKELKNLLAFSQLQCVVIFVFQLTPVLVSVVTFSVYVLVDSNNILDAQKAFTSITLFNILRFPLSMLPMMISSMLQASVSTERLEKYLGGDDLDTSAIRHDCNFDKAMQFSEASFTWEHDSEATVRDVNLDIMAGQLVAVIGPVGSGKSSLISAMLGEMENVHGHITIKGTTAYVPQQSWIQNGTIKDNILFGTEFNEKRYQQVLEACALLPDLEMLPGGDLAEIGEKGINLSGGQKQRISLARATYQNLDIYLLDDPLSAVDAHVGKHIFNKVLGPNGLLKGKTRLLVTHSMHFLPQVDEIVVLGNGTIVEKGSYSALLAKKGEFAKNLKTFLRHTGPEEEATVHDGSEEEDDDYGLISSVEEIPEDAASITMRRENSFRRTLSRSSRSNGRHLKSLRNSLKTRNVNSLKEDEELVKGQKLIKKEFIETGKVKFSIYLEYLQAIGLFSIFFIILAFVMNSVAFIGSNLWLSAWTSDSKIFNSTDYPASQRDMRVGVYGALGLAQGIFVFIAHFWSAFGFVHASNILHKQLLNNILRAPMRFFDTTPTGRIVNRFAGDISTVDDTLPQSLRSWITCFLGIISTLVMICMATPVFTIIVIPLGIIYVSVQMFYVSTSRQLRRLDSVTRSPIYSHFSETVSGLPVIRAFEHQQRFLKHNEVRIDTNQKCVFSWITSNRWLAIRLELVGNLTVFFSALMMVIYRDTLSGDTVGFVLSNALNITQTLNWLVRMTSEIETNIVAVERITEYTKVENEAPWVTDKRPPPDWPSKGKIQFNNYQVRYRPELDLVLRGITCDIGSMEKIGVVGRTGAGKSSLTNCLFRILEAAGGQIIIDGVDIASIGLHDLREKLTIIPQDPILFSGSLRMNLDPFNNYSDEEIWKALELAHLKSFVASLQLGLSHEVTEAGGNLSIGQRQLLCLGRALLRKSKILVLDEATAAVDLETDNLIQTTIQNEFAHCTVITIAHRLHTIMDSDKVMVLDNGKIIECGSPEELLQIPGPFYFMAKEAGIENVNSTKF

Compound	Activity [1]	Activity [2]
CO[C@H]1/C=C/O[C@@]2(C)Oc3c(C)c(O)c4c(O)c(c(/C=N/N5CCN(C)CC5)c(O)c4c3C2=O)NC(=O)/C(C)=C\C=C\[C@H](C)[C@H](O)[C@@H](C)[C@@H](O)[C@@H](C)[C@H](OC(C)=O)[C@@H]1C [RIFAMPIN]	inducer [+]	inducer [+]
O[As](O)O [TRIHYDROXYARSENITE(III)]	inducer [+]	inducer [+]
Clc1ccccc1C(c1ccccc1)(c1ccccc1)n1ccnc1 [CLOTRIMAZOLE]	inducer [+]	inducer [+]
CC(C)(C)c1cc(O)ccc1O [E319]	inducer [+]	inducer [+]
